Data reported in a melting point compilation (Tetko et al.; mined from patent text by program, amines drawn as free bases though some values may be those of a salt).

Row | SMILES | melting point
1 | CCc1[nH]c(=S)[nH]c1-c1cc(C(C)(C)C)c(O)c(C(C)(C)C)c1 | 279 to 281 °C
2 | Cc1cc2c(c(N3CC[C@H](N(C)C)C3)c1-c1ccccc1)OC(C#N)(C(=O)N1CCCCC1)N2 (stereo partly specified) | 170 to 173 °C
3 | COC(=O)C=Cc1cc(-n2nc(C)n(C(F)F)c2=O)c(Cl)cc1Cl | 148 to 151 °C
4 | CCN1C(=O)C(C)(C)C(=O)N(C)c2cc(CN(CCn3ccc4oc(C)cc4c3=O)Cc3cccc(C=O)c3)ccc21 | 79 to 84 °C
5 | CCCCCCCCCCCC(=O)NC(CCCCNN=C=S)C(=O)O (stereo unspecified) | 37 to 39 °C
6 | Cc1c(-c2ccncc2)oc2c1C(=O)C(C)(C)CC2 | 133 to 134 °C
7 | Cc1c(/C=C/C(=O)c2ccccc2)ncn1C(c1ccccc1)(c1ccccc1)c1ccccc1 | 209 to 211 °C
8 | CC(C)(C)OC(=O)Nc1ccc(-c2cccc(F)c2F)cc1N | 78 °C
9 | COC(=O)c1cc(C(C)=O)cnc1C1=NC(C)(C(C)C)C(=O)N1 (stereo unspecified) | 105 to 108 °C
10 | CCOCC1=C(C(=O)OCC)C(c2ccccc2C(F)(F)F)C(C(=O)OCC)=C(C)N1 (stereo unspecified) | 112 °C
11 | Cc1cc(-c2sc(N3CCN(CC4CC4)C3=O)nc2C)n[nH]1 | 231 to 233 °C
12 | CCOc1c(C)cc2c(c1C)C1(C)Cc3ccccc3C1=N2 (stereo unspecified) | 164 °C
13 | Cc1nc(-c2c(Cl)cc(O)cc2Cl)oc1C | 228 to 229 °C
14 | O=C1CCC(n2cnc3cc(F)ccc3c2=O)C(=O)N1 (stereo unspecified) | 296 to 298 °C
15 | Cc1nc2c(c(-c3cccc([N+](=O)[O-])c3)c1C(=O)OCCO)C(=O)OC2 | 130 °C
16 | Cc1ccc(C(=O)C(O)[C@H]2OC[C@@H](n3cc(I)c(=O)n(C(=O)c4ccc(C)cc4)c3=O)O2)cc1 (stereo partly specified) | 166 to 168 °C
17 | COc1ccc(-c2nc(C)nn2-c2ccc(S(N)(=O)=O)cc2)cc1OC | 176 to 178 °C
18 | N#CCCn1cc(-c2cccc(Cl)c2Cl)c(C(F)(F)F)c1 | 83 to 85 °C
19 | COc1ccn(O)c(=O)c1 | 174 to 175 °C
20 | C=CCOc1cc(-n2c(OC)nc(C(F)(F)F)cc2=O)c(F)cc1Br | 107 to 110 °C
21 | Nc1sc2c(c1C(=O)c1ccc(Br)c3ccccc13)CCCC2 | 176 to 178 °C
22 | CC(C)(C)OC(=O)NC[C@H]1CC[C@H](CI)CC1 | 81 to 83 °C

Row | SMILES | melting point
23 | Cc1cccc(NC(=O)NC2N=C(c3ccccc3)c3ccccc3N(Cc3cc(C)ccn3)C2=O)c1 (racemic) | 212 to 213 °C
24 | Cc1cc([N+](=O)[O-])c(NC(C)C)c([N+](=O)[O-])c1C(C)C | 54 to 55 °C
25 | CC(C)C(=O)Nc1csc(Br)n1 | 95 °C
26 | CC(C)(O)COC1CCNCC1 | 80 to 82 °C
27 | O=C/C=C/c1cc2ccccc2o1 | 67 °C
28 | O=C(c1ccccc1)c1ccc(C(=O)c2ccc(C(=O)c3ccccc3)cc2)cc1 | 224 to 228 °C
29 | CCN(CC)CCCNc1nnc(COC)c2c1cc1n2CCCC1 | 145 to 147 °C
30 | CCCCCCCCCCCCNc1nc(NCC(O)C2CC(C)(C)NC(C)(C)C2)nc(NCC(O)C2CC(C)(C)NC(C)(C)C2)n1 (stereo unspecified) | 107 to 109 °C
31 | CCOC(=O)Oc1c(OC)cc(Cl)c2c1CN1CCc3cc(OC)c(OCc4ccccc4)cc3C1C2 (stereo unspecified) | 128 °C
32 | COc1cc([N+](=O)[O-])c(N)cc1C(=O)O | 252 to 255 °C
33 | CCCCNCCCNCCCCCCCCNCCCNCCCC | > 300 °C
34 | NS(=O)(=O)c1ccc(-c2noc(-c3cnn4c(C(F)(F)F)cc(-c5ccc(Cl)cc5)nc34)n2)s1 | 294 °C
35 | CC(=O)OC1CSC(Sc2cc(C(F)(F)F)cc(C(F)(F)F)c2)C(OC(C)=O)C1OC(C)=O (stereo unspecified) | 201 °C
36 | CCC(=Cc1ccc(OCCCC(=O)O)c(Cl)c1Cl)[N+](=O)[O-] | 155 to 156 °C
37 | CCc1cc(OCc2cccc(C(=O)OC)c2)cc(O)c1C(C)=O | 132 °C
38 | O=c1c(Nc2cccc(C(F)(F)F)c2)c(Nc2ccc(Br)cc2-c2nnn[nH]2)c1=O | 150 to 165 °C
39 | COc1ccc(-n2ncc(C(=O)N[C@H](C)[C@](O)(Cn3cncn3)c3ccc(F)cc3F)c2C)cc1 | 176 to 177 °C
40 | CCOc1cc(Oc2ncc(Cl)cn2)ccc1[N+](=O)[O-] | 114 to 115 °C
41 | CC(=O)N1CCN=C1Nc1cccc2c1CCC2 | 180 to 182 °C
42 | CC(C)(C)C1=NC=C2C=CC(=O)NC3=C2N1CC3 | 246 to 248 °C
43 | CCOC(=O)C1=C(C)Nc2nc(N3CCOCC3)nc(N3CCOCC3)c2C1c1cccc([N+](=O)[O-])c1 (stereo unspecified) | 190 °C
44 | Cc1nccn1CC#CCN1CCCC1=O | 81 to 85 °C

Results, then the compound that gave them:

Row | melting point | SMILES
45 | 197 to 198 °C | Cc1cccc(CO)c1CNc1cc(C(=O)N(C)C)cc2c1nc(C)n2C
46 | 182 to 183 °C | C/C(=C\c1ccc(CO)cc1)c1ccc2c(c1)C(C)(C)C(O)CC2(C)C (stereo unspecified)
47 | 152 to 153 °C | COc1cc(CO)ccc1OCc1sc(-c2ccccc2)nc1C
48 | 220 to 223 °C | COc1ccc(-c2nc3cc(F)ccc3s2)cc1OC(=O)c1ccccc1Br
49 | 103 to 106 °C | OCCOC(c1ccccc1)(c1ccccc1)c1ccccc1
50 | 114 to 119 °C | OC1CSC(Oc2cccnc2-c2ccc(OC(F)(F)F)cc2)C(O)C1O (stereo unspecified)
51 | 115 to 117 °C | COc1ccccc1O[C@@H]1CN(Cc2ccccc2)C[C@H]1O (relative stereo)
52 | 216 to 218 °C | O=Cc1ccc(-c2cc(-c3c(-c4ccccn4)nc4ccccn34)ccn2)cc1
53 | 132 to 134 °C | O=[N+]([O-])c1cccc(NS(=O)(=O)c2ccccc2)c1
54 | 219 to 221 °C | COc1ccccc1-c1ccc(S(N)(=O)=O)c(N)c1
55 | 210 to 212 °C | COC1=C(C#N)C(c2ccccc2)=C2C(=O)N(C)C(c3ccccc3)=C12
56 | 107 to 126 °C | CC(=O)Oc1cnccc1CCCOc1cccnc1Oc1cccc(Cl)c1
57 | 200 to 202 °C | CC(C(=O)O)c1cccc2c(-c3ccc(Cl)cc3)nccc12 (stereo unspecified)
58 | 149 °C | O=Cc1ccccc1-c1noc2ccccc12
59 | 193 to 195 °C | Cc1nnsc1C(=O)Nc1ccc(-n2nc(C(F)(F)F)cc2C#N)cc1
60 | 103 to 120 °C | O=C(c1ccc2ccccc2c1)C(O)O
61 | 123 to 125 °C | COc1ccc(-c2nc(N(C)C)c3c(C)c(C#N)sc3n2)cc1
62 | 104 to 106 °C | Cc1ccnc(-c2ccc(CBr)cc2)n1
63 | 171 °C | CN(Cc1ccccn1)C(=S)Nc1ccc(C#N)cc1
64 | 130 °C | O=C(Cc1ccc(Cl)nc1)Nc1ccccn1
65 | 218 °C | Cc1ccc(-c2nc(C#N)c(-c3cccc(Cl)c3)n2-c2cc(Cl)ccc2C)cc1C
66 | 83 to 85 °C | CCCCC=C(c1ccccc1N1CCCCC1)C(C(N)=O)c1ccc(C(=O)OCC)cc1 (stereo unspecified)
67 | 75 to 76 °C | CCOC(=O)Cn1c(C(=O)OCc2ccccc2)cc2cc(F)ccc21
68 | 173 to 180 °C | CC(=O)Nc1ccc(NC(=O)CN2CCC(Cc3ccc(F)cc3)CC2)cc1
69 | 159 to 160 °C | COc1ccc([C@@H]2Sc3ccccc3N(CCN(C)C)C(=O)[C@@H]2OC(=O)c2cc(Cl)ccc2[N+](=O)[O-])cc1
70 | 51 to 54 °C | CCCOc1ccc(OCC(O)CNCCNc2c(C)cccc2C)cc1 (stereo unspecified)
71 | 217 to 219 °C | COc1ccnc(CCc2nc3cc(-c4ccc(S(=O)(=O)N5CCN(c6ccc(C#N)cc6)CC5)cc4)cnc3[nH]2)c1
